The source made the active and inactive calls. The calls are words filed in the database; no cut-off is given here.

Assay [1] is described as follows: Cytotoxicity against BL2/B95 cells (unknown origin) assessed as cell killing after 24 hrs by MTT assay. In kind it is functional, cell-based. To be noted: BL2/B95, 24 h.
The nature of assay [2]: Cytotoxicity against BL2 cells (unknown origin) assessed as cell killing after 24 hrs by MTT assay. To be noted: BL2, 24 h. It is filed as functional, cell-based.
A short description of assay [3]: Cytotoxicity against Remb1 cells (unknown origin) assessed as cell killing after 24 hrs by MTT assay. It is filed as functional, cell-based. To be noted: Remb1, 24 h.
Assay [4] can be described thus: Cytotoxicity against BL2 cells (unknown origin) assessed as cell killing at 10 uM after 24 hrs by MTT assay. In kind it is functional.
Assay [5] can be described thus: Induction of apoptosis in Remb1 cells (unknown origin) at 7.5 uM after 24 hrs by Annexin V/propidium iodide staining-based flow cytometric analysis. In kind it is functional.
Assay [6] in a line: Induction of apoptosis in BL2/B95 cells (unknown origin) at 7.5 uM after 24 hrs by Annexin V/propidium iodide staining-based flow cytometric analysis. It is filed as functional.
A further assay concerns BL2. Description: Induction of apoptosis in BL2 cells (unknown origin) assessed as PARP cleavage at 7.5 uM after 24 hrs by Western blot analysis. In kind it is functional, cell-based.
A short description of assay [7]: Cytotoxicity against BL2/B95 cells (unknown origin) assessed as cell killing at 10 uM after 24 hrs by MTT assay. It is filed as functional.
The nature of assay [8]: Cytotoxicity against Remb1 cells (unknown origin) assessed as cell killing at 10 uM after 24 hrs by MTT assay. It is filed as functional.
Another assay relates to BL2/B95. The experiment in a line: Induction of apoptosis in BL2/B95 cells (unknown origin) assessed as PARP cleavage at 7.5 uM after 24 hrs by Western blot analysis. In kind it is functional, cell-based.
The target in assay [9] is Induced myeloid leukemia cell differentiation protein Mcl-1/BH3-interacting domain death agonist (Homo sapiens, UniProt Q07820). The experiment in a line: Inhibition of Mcl1/Bid (unknown origin) interaction. In kind it is protein assay.
Assay [10] is described as follows: Induction of apoptosis in BL2 cells (unknown origin) at 7.5 uM after 24 hrs by Annexin V/propidium iodide staining-based flow cytometric analysis. In kind it is functional.
For a further assay, the system named is Remb1. Description: Induction of apoptosis in Remb1 cells (unknown origin) assessed as PARP cleavage at 7.5 uM after 24 hrs by Western blot analysis. It is filed as functional, cell-based.
In another assay the target is Bcl-xL/BAK (Homo sapiens, UniProt Q07817). Description: Inhibition of Bcl-xL/Bak (unknown origin) interaction. In kind it is protein assay.
Bcl-xL/BAK, sequence (Q07817 whole entry): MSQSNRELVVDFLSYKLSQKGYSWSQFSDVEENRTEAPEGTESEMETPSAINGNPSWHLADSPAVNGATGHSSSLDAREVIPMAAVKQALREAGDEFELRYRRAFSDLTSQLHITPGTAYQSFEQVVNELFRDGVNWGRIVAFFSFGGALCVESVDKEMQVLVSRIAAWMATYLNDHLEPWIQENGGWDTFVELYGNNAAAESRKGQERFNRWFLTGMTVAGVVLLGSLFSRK
Bcl-xL/BAK, sequence (Q16611 whole entry, further chain): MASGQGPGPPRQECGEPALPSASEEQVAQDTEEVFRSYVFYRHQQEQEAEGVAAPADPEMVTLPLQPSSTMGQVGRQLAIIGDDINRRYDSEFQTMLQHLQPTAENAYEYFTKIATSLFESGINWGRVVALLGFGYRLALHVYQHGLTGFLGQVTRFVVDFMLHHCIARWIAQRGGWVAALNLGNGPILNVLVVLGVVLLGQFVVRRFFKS

Induced myeloid leukemia cell differentiation protein Mcl-1/BH3-interacting domain death agonist, sequence (Q07820 whole entry, the tested form may be a part): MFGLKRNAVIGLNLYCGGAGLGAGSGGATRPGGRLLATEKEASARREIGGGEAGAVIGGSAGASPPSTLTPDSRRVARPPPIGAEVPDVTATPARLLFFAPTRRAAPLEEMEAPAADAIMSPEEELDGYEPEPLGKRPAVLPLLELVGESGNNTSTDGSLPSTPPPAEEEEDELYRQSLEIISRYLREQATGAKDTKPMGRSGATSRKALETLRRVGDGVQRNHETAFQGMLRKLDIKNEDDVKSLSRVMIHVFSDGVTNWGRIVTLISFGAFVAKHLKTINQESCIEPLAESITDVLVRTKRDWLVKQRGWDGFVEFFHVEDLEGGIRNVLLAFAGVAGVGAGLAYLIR
Induced myeloid leukemia cell differentiation protein Mcl-1/BH3-interacting domain death agonist, sequence (P55957 whole entry, further chain, the tested form may be a part): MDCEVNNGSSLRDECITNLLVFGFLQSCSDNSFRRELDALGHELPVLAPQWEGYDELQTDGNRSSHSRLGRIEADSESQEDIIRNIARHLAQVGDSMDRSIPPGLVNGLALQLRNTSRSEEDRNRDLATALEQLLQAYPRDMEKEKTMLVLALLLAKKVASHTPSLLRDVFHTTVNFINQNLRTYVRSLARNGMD

For `CC(C)=CCC[C@@H](C)[C@@H]1C=C[C@]2(C(=O)O)[C@@H](CC(C)=C[C@H]2/C=C(\C)[C@H]2CC[C@H](C(=O)O)CC2)C1`, the half-inhibitory concentration (IC50) in assay [1], in assay [2] and in assay [3] was over 20 µM throughout.

With `CC(C)=CCC[C@@H](C)[C@@H]1C=C[C@]2(C(=O)O)[C@@H](CC(C)=C[C@H]2/C=C(\C)c2ccc(C(=O)O)cc2)C1`, the Activity in assay [4] was over 50%; in assay [5], 54%; in assay [6], 52%; in [7], over 50%; in assay [8], over 50%; in [10] it was 71%. The outcome in the assay with BL2, in the assay with BL2/B95 and with Remb1 was Active. Moreover, the half-maximal inhibitory concentration (IC50) in assay [1] is 8.6 µM; in [2], 8.5 µM; in assay [3], 8.6 µM. The inhibition constant Ki stood at 9.1 µM in assay [9] and 4.6 µM on Bcl-xL/BAK.

In the case of `CC(C)=CCC[C@@H](C)[C@H]1C=C[C@@]2(C(=O)O)[C@H](CC(C)=C[C@@H]2/C=C(\C)[C@H]2CC[C@H](C(=O)O)CC2)C1`, the concentration for half-maximal inhibition (IC50) in [1], in [2] and in assay [3] was over 20 µM each time.

With `CC(C)=CCC[C@H](C)[C@H]1C=C[C@@]2(C(=O)O)[C@H](CC(C)=C[C@@H]2/C=C(\C)[C@H]2CC[C@H](C(=O)O)CC2)C1`, the IC50 in assay [1], in assay [2] and in assay [3] was over 20 µM each time.

As for `CC(C)=CCC[C@H](C)[C@@H]1C=C[C@]2(C(=O)O)[C@@H](CC(C)=C[C@H]2/C=C(\C)c2ccc(C(=O)O)cc2)C1`, the 50% inhibitory concentration (IC50) in assay [1], in [2] and in assay [3] was over 20 µM in each case. Moreover, the figures for the Ki (in [9]; at Bcl-xL/BAK) were 15.9 µM and 7.5 µM, respectively.

For the origin of these results see ChEMBL document CHEMBL3351486 (Bioorg Med Chem Lett, 2014).
